The target of assay [1] is full-length MALT1 protein (Strep-MALT1(1-824)-His) (Homo sapiens (Human), UniProt Q9UDY8). Briefly: MALT1 Biochemical Protease Assay (Ac-LRSR-AMC substrate). The settings on record: 10 nM FL MALT1, 200 μM Ac-LRSR-AMC, 4 h at RT; read-out: MALT1_Biochemical activity (Ac-LRSR-amc) IC50. On the procedure:
The tetrapeptide LRSR is coupled to AMC (7-amino-4-methylcoumarin) and provides a quenched, fluorescent substrate for the MALT1 protease (SM Biochemicals). […] Test compound concentrations ranged from 30 μM to 0.5 nM using 11 dilution steps (1:3). Background signal was measured from control wells containing assay buffer without enzyme which functions as low control (LC). High control (HC) values were generated using the reaction with enzyme but no compound treatment. Compounds were pre-incubated with MALT1 enzyme for 50 minutes at RT. […] The reaction was subsequently incubated for 4 h at RT and fluorescence was measured.
LC=Median of the low control values
An estimate of the slope of the plot in terms of the Hill coefficient was also obtained. IC50 Calculation:
[formula] With • UB=upper bound • LB=lower bound Used in “Lexis Dose Response Curve Fitting” Version 1.0.

For assay [2], the system named is IL6 secretion by TMD8 ABC-DLBCL cells. Briefly: Human IL6 Mesoscale assay (TMD-8). The format is cell-based. The settings on record: Homo sapiens, TMD8; TMD-8 cells, 24 h. The protocol: (§1) NFKB signaling regulates the secretion of multiple cytokines, including IL6 and IL10. Secretion of the cytokines IL6 and IL10 by TMD8 or OCI-LY3 ABC-DLBCL cells was measured using a mesoscale assay. Inhibition of NFKB signaling by MALT1 or BTK inhibitors results in a decrease of IL6/10 secretion.
(§2) TMD8 or OCI-LY3 cells were propagated in RPMI-1640 (Sigma Aldrich) supplemented with 10% fetal bovine serum (HyClone), 1 mM sodium pyruvate (Invitrogen), 2 mM L-glutamine (Sigma Aldrich) and 1% PenStrep (Sigma Aldrich). Cell passage number should not exceed 30. Cells should be kept between 0.5-2.5 million cells per mL during culturing and cells should be supplemented every 2-3 days with fresh 50 μM beta-mercaptoenthanol. No beta-mercaptoethanol was used during the mesoscale assay.
(§3) For the Mesoscale assay, 100,000 TMD8 or OCI-LY3 cells were seeded per well into black-colored 96-well plates with clear bottom (Corning #3904) and test compounds were added in 9 dilution steps (1:2) ranging from 15 μM to 58.6 nM (final DMSO concentration 0.3%). DMSO control wells were used to determine the maximum signal (High Control (HC)). Treatment with the BTK inhibitor RN486 in a dose range from 30 nM to 131 pM (9 dilutions of 1:2) served as a positive control for NFKB pathway inhibition and was used to determine the maximum inhibition (Low Control (LC)). Compounds and cells were incubated for 24 h at 37° C. and 5% CO2 (assay volume is 150 μL). After 24 h of incubation 50 μL of the supernatant was transferred to a MSD plate (V-Plex Proinflammation Panel 1 (human) kit, Mesoscale (MSD)) and incubated for 2 h with vigorous shaking (600 rpm) at room temperature. Following incubation, plates were washed 3× with PBS+0.05% Tween-20 and 25 μL detection antibody solution (IL6 & IL10 antibodies in diluent 3 (MSD)) was added per well followed by 2 h of incubation with vigorous shaking (600 rpm) at room temperature. After 3× washes with PBS+0.05% Tween-20, plates were incubated with 150 μL 2× Read Buffer T and read on SECTOR imager.

Assay [3] deals with IL10 secretion by TMD8 ABC-DLBCL cells. Briefly: Human IL10 Mesoscale assay (TMD-8). Type of assay: cell-based. The note with it: Homo sapiens, TMD8; TMD-8 cells, 24 h. On the procedure:
as §1, §2, §3

Molecules are shown by their SMILES. A value given as a limit tells only on which side of the number the result lay.

Sequence of full-length MALT1 protein (Strep-MALT1(1-824)-His) (Q9UDY8 whole entry): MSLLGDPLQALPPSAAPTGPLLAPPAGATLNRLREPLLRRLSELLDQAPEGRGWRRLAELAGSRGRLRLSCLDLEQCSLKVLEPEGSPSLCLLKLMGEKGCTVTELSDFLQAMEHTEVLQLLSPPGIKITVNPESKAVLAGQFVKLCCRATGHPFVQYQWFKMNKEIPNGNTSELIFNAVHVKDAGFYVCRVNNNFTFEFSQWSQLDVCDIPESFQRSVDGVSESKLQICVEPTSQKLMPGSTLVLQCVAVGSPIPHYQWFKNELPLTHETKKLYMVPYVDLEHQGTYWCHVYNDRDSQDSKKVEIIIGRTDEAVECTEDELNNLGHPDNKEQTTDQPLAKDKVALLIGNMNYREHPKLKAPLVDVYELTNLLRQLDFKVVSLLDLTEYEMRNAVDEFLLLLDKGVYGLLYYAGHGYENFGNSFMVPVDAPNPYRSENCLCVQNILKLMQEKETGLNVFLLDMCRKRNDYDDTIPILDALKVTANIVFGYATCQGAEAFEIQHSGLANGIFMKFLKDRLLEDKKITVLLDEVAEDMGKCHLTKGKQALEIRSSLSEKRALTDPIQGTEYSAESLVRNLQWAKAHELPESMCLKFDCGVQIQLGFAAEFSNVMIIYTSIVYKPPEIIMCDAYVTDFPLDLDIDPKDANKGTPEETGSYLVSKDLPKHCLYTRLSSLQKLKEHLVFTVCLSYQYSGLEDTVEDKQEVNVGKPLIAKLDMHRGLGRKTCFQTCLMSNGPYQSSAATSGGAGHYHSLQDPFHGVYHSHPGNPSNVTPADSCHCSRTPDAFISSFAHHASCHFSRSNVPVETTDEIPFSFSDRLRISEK

As usually defined, the IC50 is the midpoint of a concentration-inhibition curve. With `Cc1nc(-n2nccn2)c(Br)cc1NC(=O)c1cnn(-c2cccc3c(=O)[nH]ccc23)c1C(F)(F)F` [Cpd 185, N-(5-bromo-2-methyl-6-(2H-1,2,3-triazol-2-yl)pyridin-3-yl)-1-(1-oxo-1,2-dihydroisoquinolin-5-yl)-5-(trifluoromethyl)-1H-pyrazole-4-carboxamide], the IC50 was 18 nM in assay [1], 186 nM in assay [2] and 162 nM in assay [3].

Regarding `O=C(Nc1cnc(-n2nccn2)c(Cl)c1)c1cnn(-c2cccc3ncccc23)c1Br` [Cpd 188, 5-Bromo-N-(5-chloro-6-(2H-1,2,3-triazol-2-yl)pyridin-3-yl)-1-(quinolin-5-yl)-1H-pyrazole-4-carboxamide], the concentration for half-maximal inhibition (IC50) worked out at 115 nM in assay [1], 46 nM in assay [2] and 50 nM in assay [3].

As to `Cc1nc(-n2nccn2)c(Cl)cc1NC(=O)c1cnn(-c2ccc(F)c3nccn23)c1C(F)(F)F` [Cpd 203, N-(5-chloro-2-methyl-6-(2H-1,2,3-triazol-2-yl)pyridin-3-yl)-1-(8-fluoroimidazo[1,2-a]pyridin-5-yl)-5-(trifluoromethyl)-1H-pyrazole-4-carboxamide], the IC50 in assay [1] is 162 nM; in assay [2] it was 5620 nM; in assay [3], 2690 nM.

As to `O=C(Nc1cnc(-n2nccn2)c(Cl)c1)c1cnn(-c2c(F)ccc3nccn23)c1C(F)(F)F` [Cpd 205, N-(5-chloro-6-(2H-1,2,3-triazol-2-yl)pyridin-3-yl)-1-(6-fluoroimidazo[1,2-a]pyridin-5-yl)-5-(trifluoromethyl)-1H-pyrazole-4-carboxamide], the IC50 was 195 nM in assay [1], greater than 15100 nM in assay [2] and 1900 nM in assay [3].

On to `Cc1cn2c(-n3ncc(C(=O)Nc4ccnc(C(F)(F)F)c4)c3C(F)(F)F)cccc2n1` [Cpd 206, 1-(2-methylimidazo[1,2-a]pyridin-5-yl)-5-(trifluoromethyl)-N-(2-(trifluoromethyl)pyridin-4-yl)-1H-pyrazole-4-carboxamide], for which the figures for the IC50 in assay [1], in assay [2] and in assay [3] were 1740 nM, 6170 nM and 3890 nM, respectively.

As to `O=C(Nc1ccnc(C(F)(F)F)c1)c1cnn(-c2cccc3nccn23)c1C(F)(F)F` [Cpd 208, 1-(imidazo[1,2-a]pyridin-5-yl)-5-(trifluoromethyl)-N-(2-(trifluoromethyl)pyridin-4-yl)-1H-pyrazole-4-carboxamide], the results for the IC50 in assay [1], in assay [2] and in assay [3] were 316 nM, greater than 15100 nM and 8710 nM, respectively.

With `O=C(Nc1ccnc(C(F)(F)F)c1)c1cnn(-c2ccc(F)c3nccn23)c1C(F)(F)F` [Cpd 209, 1-(8-fluoroimidazo[1,2-a]pyridin-5-yl)-5-(trifluoromethyl)-N-(2-(trifluoromethyl)pyridin-4-yl)-1H-pyrazole-4-carboxamide], the values for the IC50 in assay [1], in assay [2] and in assay [3] were 224 nM, 1480 nM and 1120 nM, respectively.

For the compound `Cc1cnc2cccc(-n3ncc(C(=O)Nc4cnc(-n5nccn5)c(Cl)c4)c3C(F)(F)F)n12` [Cpd 211, N-(5-chloro-6-(2H-1,2,3-triazol-2-yl)pyridin-3-yl)-1-(3-methylimidazo[1,2-a]pyridin-5-yl)-5-(trifluoromethyl)-1H-pyrazole-4-carboxamide], the IC50 worked out at 35 nM in assay [1], 1660 nM in assay [2] and 2290 nM in assay [3].

Regarding `CN1CCc2ccc(NC(=O)c3cnn(-c4cccc5ncccc45)c3C(F)(F)F)cc2C1=O` [Cpd 212, N-(2-methyl-1-oxo-1,2,3,4-tetrahydroisoquinolin-7-yl)-1-(quinolin-5-yl)-5-(trifluoromethyl)-1H-pyrazole-4-carboxamide], the IC50 in assay [1] amounted to 11000 nM; in assay [2], 1020 nM; in assay [3], 513 nM.

In the case of `CS(=O)(=O)c1cc(NC(=O)c2cnn(-c3cccc4ncccc34)c2C(F)(F)F)ccc1-n1ccnn1` [Cpd 213, N-(3-(methylsulfonyl)-4-(1H-1,2,3-triazol-1-yl)phenyl)-1-(quinolin-5-yl)-5-(trifluoromethyl)-1H-pyrazole-4-carboxamide], the figures for the IC50 in assay [1], in assay [2] and in assay [3] were 10000 nM, greater than 15100 nM and greater than 15100 nM, respectively.

Consider `CN1C(=O)COc2ccc(NC(=O)c3cnn(-c4cccc5ncccc45)c3C(F)(F)F)cc21` [Cpd 214, N-(4-methyl-3-oxo-3,4-dihydro-2H-benzo[b][1,4]oxazin-6-yl)-1-(quinolin-5-yl)-5-(trifluoromethyl)-1H-pyrazole-4-carboxamide], for which the IC50 in assay [1] was determined as 6030 nM; in assay [2] it was 2040 nM; in assay [3], 2240 nM.

On to `CS(=O)(=O)c1cc(NC(=O)c2cnn(-c3cccc4ncccc34)c2C(F)(F)F)ccc1-n1nccn1` [Cpd 215, N-(3-(methylsulfonyl)-4-(2H-1,2,3-triazol-2-yl)phenyl)-1-(quinolin-5-yl)-5-(trifluoromethyl)-1H-pyrazole-4-carboxamide], for which the IC50 in assay [1] was found to be 5750 nM; in assay [2], 12300 nM; in assay [3] it was 2090 nM.

As for `Cn1ccc2ccc(NC(=O)c3cnn(-c4cccc5ncccc45)c3C(F)(F)F)cc2c1=O` [Cpd 216, N-(2-methyl-1-oxo-1,2-dihydroisoquinolin-7-yl)-1-(quinolin-5-yl)-5-(trifluoromethyl)-1H-pyrazole-4-carboxamide], the half-inhibitory concentration (IC50) in assay [1] came to 5370 nM; in assay [2], 912 nM; in assay [3], 339 nM.

For `O=C1COc2ccc(NC(=O)c3cnn(-c4cccc5ncccc45)c3C(F)(F)F)cc2N1` [Cpd 217, N-(3-oxo-3,4-dihydro-2H-benzo[b][1,4]oxazin-6-yl)-1-(quinolin-5-yl)-5-(trifluoromethyl)-1H-pyrazole-4-carboxamide], the IC50 in assay [1] was 4900 nM; in assay [2], 537 nM; in assay [3], 269 nM.

As to `Cc1cc(NC(=O)c2cnn(-c3cccc4ncccc34)c2C(F)(F)F)cnc1-n1ccn(C)c1=O` [Cpd 218, N-(5-methyl-6-(3-methyl-2-oxo-2,3-dihydro-1H-imidazol-1-yl)pyridin-3-yl)-1-(quinolin-5-yl)-5-(trifluoromethyl)-1H-pyrazole-4-carboxamide], the IC50 in assay [1] was found to be 3470 nM; in assay [2], 174 nM; in assay [3], 87 nM.

With `N#Cc1cc(NC(=O)c2cnn(-c3cc(Cl)nc4ccccc34)c2C(F)(F)F)cnc1-n1nccn1` [Cpd 220, 1-(2-chloroquinolin-4-yl)-N-(5-cyano-6-(2H-1,2,3-triazol-2-yl)pyridin-3-yl)-5-(trifluoromethyl)-1H-pyrazole-4-carboxamide], the IC50 in assay [1] was 2140 nM; in assay [2], 851 nM; in assay [3], 468 nM.

Take `O=C(Nc1cnc(-n2nccn2)c(Cl)c1)c1cnn(-c2ncnc3[nH]ncc23)c1C(F)(F)F` [Cpd 222, N-(5-chloro-6-(2H-1,2,3-triazol-2-yl)pyridin-3-yl)-1-(1H-pyrazolo[3,4-d]pyrimidin-4-yl)-5-(trifluoromethyl)-1H-pyrazole-4-carboxamide]: the IC50 in assay [1] is 1700 nM; in assay [2] it was 3310 nM; in assay [3], 575 nM.

In the case of `N#Cc1cc(NC(=O)c2cnn(-c3ccnc4ccncc34)c2C(F)(F)F)cnc1-n1nccn1` [Cpd 223, N-(5-cyano-6-(2H-1,2,3-triazol-2-yl)pyridin-3-yl)-1-(1,6-naphthyridin-4-yl)-5-(trifluoromethyl)-1H-pyrazole-4-carboxamide], the IC50 was 1700 nM in assay [1], 759 nM in assay [2] and 1180 nM in assay [3].

For `CN1CCN(c2ncc(NC(=O)c3cnn(-c4cccc5ncccc45)c3C(F)(F)F)cc2C#N)CC1` [Cpd 224, N-(5-cyano-6-(4-methylpiperazin-1-yl)pyridin-3-yl)-1-(quinolin-5-yl)-5-(trifluoromethyl)-1H-pyrazole-4-carboxamide], the concentration for half-maximal inhibition (IC50) in assay [1] came to 1660 nM; in assay [2], 575 nM; in assay [3] it was 832 nM.

The record behind these values is US10954214B2 (Janssen Pharmaceutica NV, priority 2016, dated 2021).
